From US8580478B2, “Latent acids and their use” (BASF SE, priority 2010, dated 2013)

Assay: Solubility of photoacid generator compounds in cyclohexanone
Type: physicochemical
Conditions: cyclohexanone as solvent, with stirring; lower amount = better solubility
Experimental: In order to determine the solubility of photoacid generator compounds of the present invention, to a weighed amount of the compound to be tested is added cyclohexanone as the solvent with stirring. Determined is the amount of cyclohexanone needed to completely dissolve the photoacid generator compound. […]

Compound: CC12CCC(C(=O)OCC(F)C(F)(F)S(=O)(=O)O)(OC1=O)C2(C)C (stereo not shown) [Example 57]
- Solvent needed to completely dissolve 10 g of the compound: 24 mL
